Measurements from ChEMBL document CHEMBL1201862, “PubChem BioAssay data set” (2004).
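Grown in 96-well plates, cells were treated for 48 hours with each compound at five concentrations. Insufficient inhibition: endpoint recorded as highest concentration tested. GI50 = concentration required for 50% inhibition of growth.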 Calls of active or inactive are those of the source. No stated cut-off is given here; in the data, active = GI50 up to about 1.1 µM and inactive = higher.

Experiments:
Test in all cases: NCI anticancer screen, dose series, 48 h
[1] = tested on: T47D
[2] = tested on: HCT-116
[3] = tested on: SK-MEL-2
[4] = tested on: U-251
[5] = tested on: OVCAR-8
[6] = tested on: UO-31
[7] = tested on: HT-29
[8] = tested on: Malme-3M
[9] = tested on: SK-OV-3
[10] = tested on: A498
[11] = tested on: A549
[12] = tested on: HCC 2998
[13] = tested on: IGROV-1
[14] = tested on: OVCAR-4
[15] = tested on: K562
[16] = tested on: TK-10
[17] = tested on: EKVX
[18] = tested on: SR
[19] = tested on: 786-0
[20] = tested on: MDA-N

Row | Compound | GI50 [1] | GI50 [2] | GI50 [3] | GI50 [4] | GI50 [5] | GI50 [6] | GI50 [7] | GI50 [8] | GI50 [9] | GI50 [10] | GI50 [11] | GI50 [12] | GI50 [13] | GI50 [14] | GI50 [15] | GI50 [16] | GI50 [17] | GI50 [18] | GI50 [19] | GI50 [20]
1 | COC(=O)c1ccc(C)cc1CC1Cc2c(C)cccc2C1=O (stereo not given) | 7.93 µM (inactive) | 3.58 µM (inactive) | 5.9 µM (inactive) | 5.96 µM (inactive) | 14.3 µM (inactive) | 15.9 µM (inactive) | 3.04 µM (inactive) | 10.7 µM (inactive) | 6.21 µM (inactive) | 4.95 µM (inactive) | 7.57 µM (inactive) | 11.1 µM (inactive) | 5.62 µM (inactive) | 25.5 µM (inactive) | 2.94 µM (inactive) | 11.5 µM (inactive) | 18 µM (inactive) | 9.35 µM (inactive) | 12.8 µM (inactive) | 1.87 µM (inactive)
2 | CO/N=C(\C(=O)[N-]n1cn[n+](CC(=O)OC(C)(C)C)c1)c1csc(NC(c2ccccc2)(c2ccccc2)c2ccccc2)n1 | > 10 µM (inactive) | > 10 µM (inactive) | > 10 µM (inactive) | > 10 µM (inactive) | > 10 µM (inactive) | > 10 µM (inactive) | > 10 µM (inactive) | > 10 µM (inactive) | > 10 µM (inactive) | > 10 µM (inactive) | > 10 µM (inactive) | > 10 µM (inactive) | > 10 µM (inactive) | > 10 µM (inactive) | > 10 µM (inactive) | > 10 µM (inactive) | > 10 µM (inactive) | > 10 µM (inactive) | > 10 µM (inactive) | > 10 µM (inactive)
3 | CCOC(=O)CCSc1nc2ccc(I)cc2c(=O)n1Cc1ccccc1 | 26.9 µM (inactive) | 18.8 µM (inactive) | 31 µM (inactive) | 33 µM (inactive) | 37.5 µM (inactive) | 0.395 µM (active) | 34.4 µM (inactive) | 17.9 µM (inactive) | > 69.8 µM (inactive) | 24.6 µM (inactive) | 31.6 µM (inactive) | 26.5 µM (inactive) | 9.91 µM (inactive) | 19.5 µM (inactive) | 24 µM (inactive) | 39.4 µM (inactive) | 22.3 µM (inactive) | 7.24 µM (inactive) | 25.6 µM (inactive) | 25.7 µM (inactive)
4 | CC(C)=CC[C@H]1C[C@]2(CC=C(C)C)C(=O)[C@@](CC=C(C)C)(C(=O)C(C(=O)c3ccccc3)=C2O)C1(C)C [6-EPI-CLUSIANONE] | 5.2 µM (inactive) | 3.63 µM (inactive) | 2.67 µM (inactive) | 4.31 µM (inactive) | 5.78 µM (inactive) | 3.44 µM (inactive) | 4.67 µM (inactive) | 6.49 µM (inactive) | 5.32 µM (inactive) | 9.46 µM (inactive) | 4.94 µM (inactive) | 3.85 µM (inactive) | 3.82 µM (inactive) | 5.15 µM (inactive) | 3.87 µM (inactive) | 5.15 µM (inactive) | 5.05 µM (inactive) | 8.65 µM (inactive) | 5.51 µM (inactive) | 5.21 µM (inactive)
